Measurements published in patent US12428415B2, “Matriptase 2 inhibitors and uses thereof” (Disc Medicine, Inc., priority 2018, dated 2025).

Each molecule was assayed against T1, Human Recombinant Matriptase 2 (Homo sapiens, UniProt Q8IU80) (assay: Matriptase 2 fluorescence based inhibition assay, Method B (50 mM TRIS pH 7.5, 150 mM NaCl, 0.01% gelatin)). Conditions: 1 uM compound; Assay Used = B.
T1 construct: purchased Enzo Life Sciences (an in-house preparation was also used) ALX-201-752-1
T1 sequence (Q8IU80 1-811): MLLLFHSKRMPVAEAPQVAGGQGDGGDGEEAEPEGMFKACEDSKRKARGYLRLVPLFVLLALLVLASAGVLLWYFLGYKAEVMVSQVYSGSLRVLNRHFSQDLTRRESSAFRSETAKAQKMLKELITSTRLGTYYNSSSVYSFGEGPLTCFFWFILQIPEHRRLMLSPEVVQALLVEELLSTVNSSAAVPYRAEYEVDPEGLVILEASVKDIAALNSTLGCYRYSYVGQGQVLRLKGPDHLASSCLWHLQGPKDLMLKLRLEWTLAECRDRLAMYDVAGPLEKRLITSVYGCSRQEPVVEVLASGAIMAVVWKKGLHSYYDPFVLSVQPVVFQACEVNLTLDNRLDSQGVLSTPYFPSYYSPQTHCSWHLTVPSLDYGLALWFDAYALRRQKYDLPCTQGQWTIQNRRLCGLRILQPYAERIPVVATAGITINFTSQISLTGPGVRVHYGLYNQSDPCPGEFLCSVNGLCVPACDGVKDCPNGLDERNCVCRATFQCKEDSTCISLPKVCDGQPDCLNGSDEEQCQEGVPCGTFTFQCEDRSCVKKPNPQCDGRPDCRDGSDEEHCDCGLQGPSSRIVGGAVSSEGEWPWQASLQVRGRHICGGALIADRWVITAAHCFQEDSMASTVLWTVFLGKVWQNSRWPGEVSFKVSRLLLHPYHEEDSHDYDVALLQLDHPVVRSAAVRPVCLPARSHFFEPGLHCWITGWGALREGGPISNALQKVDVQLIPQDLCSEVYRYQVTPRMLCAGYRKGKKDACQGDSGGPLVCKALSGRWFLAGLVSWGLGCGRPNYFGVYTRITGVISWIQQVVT
Type: biochemical
Experimental: Test compounds were evaluated for their potential to inhibit Human Recombinant Matriptase 2 (in-house and commercial protein from Enzo Life Sciences—cat log -ALX-201-752-1) using fluorescence based assay. The concentration of Recombinant Matriptase 2 and the substrate used in the assay was: 7 nM (commercial) and 15 nM (Inhouse Matriptase 2) and 100 μM (Boc-Gln-Ala-Arg-7-amido-4-methyl coumarin hydrobromide—Cat log: B4153-Sigma and I-1550 from Bachem) respectively. The assay buffer used was 50 mM TRIS pH 7.5, 150 mM NaCl, 0.01% gelatin (G1393 Sigma). The assay was performed using 384 well black flat bottom plate from grenier (Cat log: 781076) at 25° C. The enzyme and compound preincubated for 30 mins, plate was read 60 mins after substrate addition at wavelength Ex: 360/Em:480 nm. The final assay volume of was 20 μl. Stock solution of compounds were initially prepared in DMSO and appropriate dilutions were made for screening and IC50 determination (final DMSO conc in the assay was 1%). All the measurements were carried out using the Spectramax M5, Molecular devices. The compounds were screened at 1 and 10 μM concentration and IC50 was determined for the interested compounds.
To determine IC50 values, dose response curves were generated by plotting percentage inhibition as a function of inhibitor concentration and the data was fitted to sigmoidal non-linear regression equation (variable slope) using Graph Pad prism software V7.

Row | Mar-2 % inhibition at 1 uM | SMILES
1 | C (C represents 50%≤I≤75%) | CC1CCCCN1CCCNC(=O)c1cc2ccc(C(=N)N)cc2n1Cc1cccc2ccccc12 (stereo not drawn) [Compound I-479]
2 | C (C represents 50%≤I≤75%) | CNC(=O)c1cc2ccc(C(=N)N)cc2n1Cc1cccc2ccccc12 [Compound I-483]

The next lines start with the molecule.

Row | SMILES | Mar-2 % inhibition at 1 uM
3 | N=C(N)c1ccc2cc(C(=O)NCC3(CN)CCCCC3)n(Cc3cccc4ccccc34)c2c1 [Compound I-474] | D (D represents 75%≤I≤100%)
4 | CN(C)C(=O)c1cc2ccc(C(=N)N)cc2n1Cc1cccc2ccccc12 [Compound I-482] | B (B represents 25%≤I≤50%)
5 | N=C(N)c1ccc2cc(C(=O)O)n(-c3ccc4ccccc4c3)c2c1 [Compound I-488, 6-carbamimidoyl-1-(naphthalen-2-yl)-1H-indole-2-carboxylic Acid] | A (A represents 0%≤I≤25%)

Same assay, conditions: 1 uM compound; Assay Used = B; read-out: Mar-2 % inhibition at 1 uM

Row | inhibition at 1 µM [%] | SMILES
6 | 50 to 75 | CC1(O)CCC(NC(=O)c2cc3ccc(C(=N)N)cc3n2Cc2cccc3ccccc23)CC1 (stereo not drawn) [Compound I-436]
7 | 25 to 50 | N=C(N)c1ccc2cc(C(=O)NC3CCCCC3)n(Cc3cccc4ccccc34)c2c1 [Compound I-438]
8 | 75 to 100 | N=C(N)c1ccc2cc(C(=O)N[C@H]3CC[C@@H](N)CC3)n(Cc3cccc4ccccc34)c2c1 [Compound I-439]
9 | 75 to 100 | N=C(N)c1ccc2cc(C(=O)N[C@H]3CC[C@H](O)CC3)n(Cc3cccc4ccccc34)c2c1 [Compound I-440]
10 | 25 to 50 | N=C(N)c1ccc2cc(C(=O)N3CCC(CO)CC3)n(Cc3cccc4ccccc34)c2c1 [Compound I-444]
11 | 75 to 100 | N=C(N)c1ccc2cc(C(=O)NC3CCCNC3)n(Cc3cccc4ccccc34)c2c1 (stereo not drawn) [Compound I-445]
12 | 75 to 100 | CN1CC[C@@H](NC(=O)c2cc3ccc(C(=N)N)cc3n2Cc2cccc3ccccc23)C1 [Compound I-450]
13 | 0 to 25 | NC(=O)c1ccc2cc(C(=O)NC3CCNCC3)n(Cc3cccc4ccccc34)c2c1 [Compound I-455, 1-(naphthalen-1-ylmethyl)-N2-(piperidin-4-yl)-1H-indole-2,6-dicarboxamide]
14 | 0 to 25 | CN1CCC(NC(=O)c2cc3ccc(C(N)=O)cc3n2Cc2cccc3ccccc23)CC1 [Compound I-457]
15 | 75 to 100 | CN1CCC(CNC(=O)c2cc3ccc(C(=N)N)cc3n2Cc2cccc3ccccc23)CC1 [Compound I-460, 6-carbamimidoyl-N-((1-methylpiperidin-4-yl)methyl)-1-(naphthalen-1-ylmethyl)-1H-indole-2-carboxamide]
16 | 75 to 100 | N=C(N)c1ccc2cc(C(=O)NC3CCC(N4CCCC4)CC3)n(Cc3cccc4ccccc34)c2c1 (stereo not drawn) [Compound I-462]
17 | 50 to 75 | N=C(N)c1ccc2cc(C(=O)NC3CCOCC3)n(Cc3cccc4ccccc34)c2c1 [Compound I-463]
18 | 75 to 100 | N=C(N)c1ccc2cc(C(=O)NC3CCCC(N)C3)n(Cc3cccc4ccccc34)c2c1 (stereo not drawn) [Compound I-467]
19 | 75 to 100 | CN(C)[C@H]1CC[C@H](NC(=O)c2cc3ccc(C(=N)N)cc3n2Cc2cccc3ccccc23)CC1 [Compound I-469]
20 | 75 to 100 | CN(C)[C@H]1CC[C@@H](NC(=O)c2cc3ccc(C(=N)N)cc3n2Cc2cccc3ccccc23)CC1 [Compound I-470]
21 | 25 to 50 | COC(=O)[C@H]1CC[C@H](NC(=O)c2cc3ccc(C(=N)N)cc3n2Cc2cccc3ccccc23)CC1 [Compound I-471]
22 | 75 to 100 | CN[C@H]1CC[C@H](NC(=O)c2cc3ccc(C(=N)N)cc3n2Cc2cccc3ccccc23)CC1 [Compound I-472]
23 | 25 to 50 | N=C(N)c1ccc2cc(C(=O)N[C@H]3CC[C@H](C(=O)O)CC3)n(Cc3cccc4ccccc34)c2c1 [Compound I-473]
24 | 50 to 75 | N=C(N)c1ccc2cc(C(=O)NC3CCNC(=O)C3)n(Cc3cccc4ccccc34)c2c1 (stereo not drawn) [Compound I-477]
25 | 75 to 100 | N=C(N)c1ccc2cc(C(=O)NCCCN3CCCCC3)n(Cc3cccc4ccccc34)c2c1 [Compound I-478]
26 | 75 to 100 | N=C(N)c1ccc2cc(C(=O)NCCN3CCCCC3)n(Cc3cccc4ccccc34)c2c1 [Compound I-481]
27 | 25 to 50 | N=C(N)c1ccc2cc(C(=O)NS(=O)(=O)C3CC3)n(Cc3cccc4ccccc34)c2c1 [Compound I-484]
28 | 75 to 100 | N=C(N)c1ccc2cc(C(=O)O[C@H]3CC[C@H](N)CC3)n(Cc3cccc4ccccc34)c2c1 [Compound I-485, (1r,4r)-4-aminocyclohexyl 6-carbamimidoyl-1-(naphthalen-1-ylmethyl)-1H-indole-2-carboxylate]

Continued, molecule first:

Row | SMILES | inhibition at 1 µM [%]
29 | N=C(N)c1ccc2cc(C(N)=O)n(Cc3cccc4ccccc34)c2c1 [Compound I-437] | 75 to 100
30 | N=C(N)c1ccc2cc(C(=O)N3CC[C@@H](O)C3)n(Cc3cccc4ccccc34)c2c1 [Compound I-441] | 25 to 50
31 | N=C(N)c1ccc2cc(C(=O)N3CCCNCC3)n(Cc3cccc4ccccc34)c2c1 [Compound I-442] | 50 to 75
32 | CN1CCN(C(=O)c2cc3ccc(C(=N)N)cc3n2Cc2cccc3ccccc23)CC1 [Compound I-443] | 0 to 25
33 | N=C(N)c1ccc2cc(C(=O)N3CC[C@@H](N)C3)n(Cc3cccc4ccccc34)c2c1 [Compound I-446] | 50 to 75
34 | N=C(N)c1ccc2cc(C(=O)Nc3ccc(N4CCC(F)C4)cc3)n(Cc3cccc4ccccc34)c2c1 (stereo not drawn) [Compound I-447] | 25 to 50
35 | N=C(N)c1ccc2cc(C(=O)Nc3cccc(-c4ncc[nH]4)c3)n(Cc3cccc4ccccc34)c2c1 [Compound I-448] | 25 to 50
36 | CN(C(=O)c1cc2ccc(C(=N)N)cc2n1Cc1cccc2ccccc12)[C@H]1CC[C@H](N)CC1 [Compound I-451] | 50 to 75
37 | N=C(N)c1ccc2cc(C(=O)NCCCCN)n(Cc3cccc4ccccc34)c2c1 [Compound I-452] | 75 to 100
38 | N=C(N)c1ccc2cc(C(=O)N(CCO)C3CCC(N)CC3)n(Cc3cccc4ccccc34)c2c1 (stereo not drawn) [Compound I-453] | 50 to 75
39 | N=C(N)c1ccc2cc(C(=O)N3CC4CC3CN4)n(Cc3cccc4ccccc34)c2c1 (stereo not drawn) [Compound I-454] | 75 to 100
40 | NC(=O)c1ccc2cc(C(=O)N[C@@H]3CCNC3)n(Cc3cccc4ccccc34)c2c1 [Compound I-456] | 0 to 25
41 | N=C(N)c1ccc2cc(C(=O)O)n(Cc3cccc4ccccc34)c2c1 [Compound I-458, 6-carbamimidoyl-1-(naphthalen-1-ylmethyl)-1H-indole-2-carboxylic Acid] | 75 to 100
42 | N=C(N)c1ccc2cc(C(=O)O)n(Cc3ccc4ccccc4c3)c2c1 [Compound I-459] | 25 to 50
43 | N=C(N)c1ccc2cc(C(=O)Nc3cccc(N4CCCC4)n3)n(Cc3cccc4ccccc34)c2c1 [Compound I-461] | 25 to 50
44 | N=C(N)c1ccc2cc(C(=O)NCC3(C(N)=O)CCCCC3)n(Cc3cccc4ccccc34)c2c1 [Compound I-464] | 50 to 75
45 | N=C(N)c1ccc2cc(C(=O)NCCN)n(Cc3cccc4ccccc34)c2c1 [Compound I-465] | 75 to 100
46 | N=C(N)c1ccc2cc(C(=O)NCCCN)n(Cc3cccc4ccccc34)c2c1 [Compound I-466] | 75 to 100
47 | N=C(N)c1ccc2cc(C(=O)N3CCOCC3)n(Cc3cccc4ccccc34)c2c1 [Compound I-468] | 25 to 50
48 | N=C(N)c1ccc2cc(C(=O)NC3CC4CC3CN4)n(Cc3cccc4ccccc34)c2c1 (stereo not drawn) [Compound I-480] | 75 to 100
49 | COC(=O)c1cc2ccc(C(=N)N)cc2n1Cc1cccc2ccccc12 [Compound I-486, Methyl 6-carbamimidoyl-1-(naphthalen-1-ylmethyl)-1H-indole-2-carboxylate] | 25 to 50
50 | N=C(N)c1ccc2cc(CO)n(Cc3cccc4ccccc34)c2c1 [Compound I-487, 2-(hydroxymethyl)-1-(naphthalen-1-ylmethyl)-1H-indole-6-carboximidamide] | 50 to 75
51 | N=C(N)c1ccc2cc(C(=O)O)n(-c3cccc4ccccc34)c2c1 [Compound I-489] | 0 to 25
